Reference: ChEMBL document CHEMBL1158616, “Biological activity of modified and exchanged 2-amino-5-nitrothiazole amide analogues of nitazoxanide” (2010)
Converted amounts (≈) assume the structure as drawn.

How the values were obtained:
Helicobacter pylori [1] = assay: Antimicrobial activity against Helicobacter pylori; assay type: functional
Clostridioides difficile = assay: Antimicrobial activity against Clostridium difficile; assay type: functional
Helicobacter pylori [2] = assay: Inhibition of Helicobacter pyroli PFOR expressed in Escherichia coli at 40 uM
Campylobacter jejuni = assay: Antimicrobial activity against Campylobacter jejuni; assay type: functional

CCCCCC(=O)Nc1ncc([N+](=O)[O-])s1
MIC (Helicobacter pylori [1]): 0.5 µM (≈ 0.122 µg/mL) | MIC (Clostridioides difficile): 2.1 µM (≈ 0.511 µg/mL) | inhibition (Helicobacter pylori [2]): 70% | MIC (Campylobacter jejuni): 8.2 µM (≈ 1.99 µg/mL)

CCCCCC(=O)Nc1nc(Cl)c([N+](=O)[O-])s1
MIC (Helicobacter pylori [1]): 0.9 µM (≈ 0.25 µg/mL) | MIC (Clostridioides difficile): 36 µM (≈ 10 µg/mL) | inhibition (Helicobacter pylori [2]): 63% | MIC (Campylobacter jejuni): 28.8 µM (≈ 8 µg/mL)

O=C(Nc1nc(Cl)c([N+](=O)[O-])s1)c1ccccc1
MIC (Helicobacter pylori [1]): 8.8 µM (≈ 2.5 µg/mL) | MIC (Clostridioides difficile): 7 µM (≈ 1.99 µg/mL) | inhibition (Helicobacter pylori [2]): 59% | MIC (Campylobacter jejuni): > 28.2 µM

O=C(Nc1sc([N+](=O)[O-])cc1[N+](=O)[O-])c1ccoc1
MIC (Helicobacter pylori [1]): 2.6 µM (≈ 0.736 µg/mL) | MIC (Clostridioides difficile): 0.4 µM (≈ 0.113 µg/mL) | inhibition (Helicobacter pylori [2]): 66% | MIC (Campylobacter jejuni): 3.5 µM (≈ 0.991 µg/mL)

O=C(Nc1ncc([N+](=O)[O-])s1)c1cccc(C(F)(F)F)c1
MIC (Helicobacter pylori [1]): 3.5 µM (≈ 1.11 µg/mL) | MIC (Clostridioides difficile): 4.7 µM (≈ 1.49 µg/mL) | inhibition (Helicobacter pylori [2]): 47% | MIC (Campylobacter jejuni): 0.4 µM (≈ 0.127 µg/mL)

O=C(Nc1sc([N+](=O)[O-])cc1[N+](=O)[O-])c1ccccc1
MIC (Helicobacter pylori [1]): 1.3 µM (≈ 0.381 µg/mL) | MIC (Clostridioides difficile): 0.9 µM (≈ 0.264 µg/mL) | inhibition (Helicobacter pylori [2]): 55% | MIC (Campylobacter jejuni): 27.3 µM (≈ 8.01 µg/mL)

O=C(Nc1ncc([N+](=O)[O-])s1)c1cccs1 [TENONITROZOLE]
MIC (Helicobacter pylori [1]): 2.9 µM (≈ 0.74 µg/mL) | MIC (Clostridioides difficile): 2.9 µM (≈ 0.74 µg/mL) | inhibition (Helicobacter pylori [2]): 50% | MIC (Campylobacter jejuni): 1 µM (≈ 0.255 µg/mL)

O=C(Nc1ncc([N+](=O)[O-])s1)c1ccoc1
MIC (Helicobacter pylori [1]): 0.8 µM (≈ 0.191 µg/mL) | MIC (Clostridioides difficile): 12.5 µM (≈ 2.99 µg/mL) | inhibition (Helicobacter pylori [2]): 56% | MIC (Campylobacter jejuni): 2.1 µM (≈ 0.502 µg/mL)

O=C(Nc1sc([N+](=O)[O-])cc1[N+](=O)[O-])c1cccs1
MIC (Helicobacter pylori [1]): 2.5 µM (≈ 0.748 µg/mL) | MIC (Clostridioides difficile): 1 µM (≈ 0.299 µg/mL) | inhibition (Helicobacter pylori [2]): 77% | MIC (Campylobacter jejuni): 20 µM (≈ 5.99 µg/mL)

O=C(Nc1sc([N+](=O)[O-])cc1[N+](=O)[O-])c1cccc(C(F)(F)F)c1
MIC (Helicobacter pylori [1]): 0.5 µM (≈ 0.181 µg/mL) | MIC (Clostridioides difficile): 2.1 µM (≈ 0.759 µg/mL) | inhibition (Helicobacter pylori [2]): 47% | MIC (Campylobacter jejuni): 4.2 µM (≈ 1.52 µg/mL)

CC(=O)Oc1ccccc1C(=O)Nc1ncc([N+](=O)[O-])s1 [NITAZOXANIDE]
MIC (Helicobacter pylori [1]): 13 µM (≈ 3.99 µg/mL) | MIC (Clostridioides difficile): 39.1 µM (≈ 12 µg/mL) | inhibition (Helicobacter pylori [2]): 54% | MIC (Campylobacter jejuni): 0.8 µM (≈ 0.246 µg/mL)

O=C(Nc1nc(Cl)c([N+](=O)[O-])s1)c1cccs1
MIC (Helicobacter pylori [1]): 6.9 µM (≈ 2 µg/mL) | MIC (Clostridioides difficile): 13.8 µM (≈ 4 µg/mL) | inhibition (Helicobacter pylori [2]): 51% | MIC (Campylobacter jejuni): > 13.8 µM

CCCCCC(=O)Nc1sc([N+](=O)[O-])cc1[N+](=O)[O-]
MIC (Helicobacter pylori [1]): 2.6 µM (≈ 0.747 µg/mL) | MIC (Clostridioides difficile): 0.9 µM (≈ 0.259 µg/mL) | inhibition (Helicobacter pylori [2]): 80% | MIC (Campylobacter jejuni): 27.8 µM (≈ 7.99 µg/mL)

O=C(Nc1nc(Cl)c([N+](=O)[O-])s1)c1cccc(C(F)(F)F)c1
MIC (Helicobacter pylori [1]): 5.7 µM (≈ 2 µg/mL) | MIC (Clostridioides difficile): 34.1 µM (≈ 12 µg/mL) | inhibition (Helicobacter pylori [2]): 27% | MIC (Campylobacter jejuni): > 22.7 µM
